A short description of data set [1]: Apparent permeability in human Caco2 cells. The class given is ADME, cell-based. The settings on record: Caco-2.
Data set [2] in a line: Lipophilicity, log P of the compound. The settings on record: octanol/water. The class given is physicochemical.

Molecules are shown by their SMILES.

`CC(C)(C)C(=O)Nc1ncnc2c1cnn2CCN1CCCCC1`: the Papp – broadly, the rate of passage across a membrane or cell layer, normalised by area and donor concentration – in data set [1] came to 39 ×10⁻⁶ cm/s. The logP (commonly a log measure of how a compound divides between an organic and an aqueous phase) in data set [2] turned out to be 2.6.

Source of the values: ChEMBL document CHEMBL4261507, “Pyrazolo[3,4-d]pyrimidines as sigma-1 receptor ligands for the treatment of pain. Part 1: 4-acylamino derivatives” (Medchemcomm, 2017).
